Measured values published in publication PMC9232501, “Results of the phase I CCTG IND.231 trial of CX-5461 in patients with advanced solid tumors enriched for DNA-repair deficiencies” (Nature Communications, 2022).
Like-named read-outs stand apart in the source and are kept apart here.

Assay: Plasma pharmacokinetics of CX-5461 (HPLC-MS/MS, non-compartmental)
Assay type: in vivo, human
Details: plasma; for concentration at 48 h / concentration at 72 h / concentration at 0.5 h / concentration at 1 h / concentration at 4 h / concentration at 6 h / concentration at 0 h / concentration at 2 h / concentration at 24 h: individual patients, read-out: Day 1 CX-5461 plasma concentration
Protocol: PK was assessed on all patients in the escalation phase. Venous blood samples were collected on treatment days 1, 8, and 15 (where applicable), and plasma CX-5461 was analyzed with HPLC-MS/MS (schedule details in Supplementary Table 3). PK parameters were calculated with non-compartmental methods. […] The protocol was amended to allow submission of a ctDNA sample and in a further amendment, a mandatory skin biopsy (pre-treatment and cycle 1 day 15) to study phototoxic effects. Fresh tumor biopsies were optional.
Supplementary Table 3. Schedule for collection of CX5461 pharmacokinetics
During infusion at 30 minutes
Immediately post infusion then:
C1D1 30 minutes post infusion
C1D2 24 hours post infusion
C1D3 48 hours post infusion
C1D4 72 hours post infusion
Immediately post infusion then
C1D15 30 minutes post infusion
C1D16 24 hours post infusion
In addition to the specific time points listed above, additional samples were to be collected from […]

[1] = human, intravenous, 50 mg/m2, 50 mg/m2
[2] = human, intravenous, 100 mg/m2, 100 mg/m2
[3] = human, intravenous, 150 mg/m2, 150 mg/m2
[4] = human, intravenous, 200 mg/m2, 200 mg/m2
[5] = human, intravenous, 250 mg/m2, 250 mg/m2
[6] = human, intravenous, 325 mg/m2, 325 mg/m2
[7] = human, intravenous, 325 mg/m2, B: 325 mg/m2
[8] = human, intravenous, 475 mg/m2, 475 mg/m2
[9] = human, intravenous, 475 mg/m2, B: 475 mg/m2
[10] = human, intravenous, 650 mg/m2, 650 mg/m2

Cc1cnc(CNC(=O)c2c(=O)c3ccc(N4CCCN(C)CC4)nc3n3c2sc2ccccc23)cn1 [CX-5461]
concentration at 48 h [1]: 24.8 ng/mL
concentration at 72 h [1]: 13.3 ng/mL
AUC (human, intravenous, 50 mg/m2, Dose level 50 (mg/m2), one patient per datapoint, read-out: Day 1 AUC): 3240 ng·h/mL
concentration at 0.5 h [2]: 141 ng/mL
concentration at 1 h [2]: 115 ng/mL
concentration at 4 h [2]: 103 ng/mL
concentration at 6 h [2]: 83.2 ng/mL
concentration at 48 h [2]: 44.7 ng/mL
concentration at 72 h [2]: 20 ng/mL
AUC (human, intravenous, 100 mg/m2, Dose level 100 (mg/m2), one patient per datapoint, read-out: Day 1 AUC): 5240 ng·h/mL
Cmax (human, intravenous, 100 mg/m2, Dose level 100 (mg/m2), one patient per datapoint, read-out: Day 8 or 15 Cmax): 1140 ng/mL
concentration at 0 h [3]: 465 ng/mL
concentration at 0.5 h [3]: 320 ng/mL
concentration at 2 h [3]: 206 ng/mL
concentration at 4 h [3]: 200 ng/mL
concentration at 6 h [3]: 179 ng/mL
Cmax (human, intravenous, 150 mg/m2, Dose level 150 (mg/m2), one patient per datapoint, read-out: Day 1 Cmax): 465 ng/mL
AUC (human, intravenous, 150 mg/m2, Dose level 150 (mg/m2), one patient per datapoint, read-out: Day 8 or 15 AUC): 19600 ng·h/mL
concentration at 24 h [4]: 72.8 ng/mL
concentration at 72 h [4]: 31.4 ng/mL
concentration at 0 h [5]: 867 ng/mL
concentration at 0.5 h [5]: 420 ng/mL
concentration at 1 h [5]: 423 ng/mL
concentration at 2 h [5]: 369 ng/mL
concentration at 4 h [5]: 233 ng/mL
concentration at 24 h [5]: 197 ng/mL
concentration at 48 h [5]: 106 ng/mL
concentration at 72 h [5]: 85.4 ng/mL
AUC (human, intravenous, 250 mg/m2, Dose level 250 (mg/m2), one patient per datapoint, read-out: Day 1 AUC): 12400 ng·h/mL
AUC (human, intravenous, 250 mg/m2, Dose level 250 (mg/m2), one patient per datapoint, read-out: Day 8 or 15 AUC): 19000 ng·h/mL
concentration at 0 h [6]: 1310 ng/mL
concentration at 0.5 h [6]: 446 ng/mL
concentration at 1 h [6]: 400 ng/mL
concentration at 2 h [6]: 395 ng/mL
concentration at 4 h [6]: 244 ng/mL
concentration at 6 h [6]: 291 ng/mL
concentration at 24 h [6]: 232 ng/mL
concentration at 48 h [6]: 138 ng/mL
concentration at 72 h [6]: 110 ng/mL
concentration at 1 h [7]: 297 ng/mL
concentration at 2 h [7]: 308 ng/mL
concentration at 4 h [7]: 252 ng/mL
concentration at 6 h [7]: 271 ng/mL
concentration at 48 h [7]: 203 ng/mL
concentration at 72 h [7]: 107 ng/mL
AUC (human, intravenous, 325 mg/m2, Dose level 325 (mg/m2), one patient per datapoint, read-out: Day 1 AUC): 15000 ng·h/mL
Cmax (human, intravenous, 325 mg/m2, Dose level 325 (mg/m2), one patient per datapoint, read-out: Day 1 Cmax): 1310 ng/mL
AUC (human, intravenous, 325 mg/m2, Dose level 325 (mg/m2), one patient per datapoint, read-out: Day 8 or 15 AUC): 24600 ng·h/mL
Cmax (human, intravenous, 325 mg/m2, Dose level 325 (mg/m2), one patient per datapoint, read-out: Day 8 or 15 Cmax): 1440 ng/mL
AUC (human, intravenous, 325 mg/m2, Dose level B: 325 (mg/m2), one patient per datapoint, read-out: Day 1 AUC): 25200 ng·h/mL
Cmax (human, intravenous, 325 mg/m2, Dose level B: 325 (mg/m2), one patient per datapoint, read-out: Day 1 Cmax): 822 ng/mL
concentration at 0 h [8]: 1540 ng/mL
concentration at 0.5 h [8]: 475 ng/mL
concentration at 1 h [8]: 480 ng/mL
concentration at 2 h [8]: 445 ng/mL
concentration at 4 h [8]: 293 ng/mL
concentration at 6 h [8]: 274 ng/mL
concentration at 24 h [8]: 242 ng/mL
concentration at 48 h [8]: 140 ng/mL
concentration at 72 h [8]: 104 ng/mL
concentration at 0.5 h [9]: 890 ng/mL
concentration at 1 h [9]: 698 ng/mL
concentration at 4 h [9]: 424 ng/mL
concentration at 48 h [9]: 336 ng/mL
concentration at 72 h [9]: 219 ng/mL
AUC (human, intravenous, 475 mg/m2, Dose level 475 (mg/m2), one patient per datapoint, read-out: Day 1 AUC): 15800 ng·h/mL
Cmax (human, intravenous, 475 mg/m2, Dose level 475 (mg/m2), one patient per datapoint, read-out: Day 1 Cmax): 1850 ng/mL
Cmax (human, intravenous, 475 mg/m2, Dose level 475 (mg/m2), one patient per datapoint, read-out: Day 8 or 15 Cmax): 1680 ng/mL
Cmax (human, intravenous, 475 mg/m2, RP2D 475 mg/m^2 d1,8,15, read-out: average day 1 Cmax): 1740 ± 801 ng/mL
Cmax (human, intravenous, 475 mg/m2, RP2D 475 mg/m^2 d1,8,15, read-out: day 15 Cmax): 2870 ± 2310 ng/mL
half-life (human, intravenous, 475 mg/m2, RP2D 475 mg/m^2 d1,8,15, read-out: elimination half-life (t1/2), day 1 (converted)): 61.5 ± 15.5 h
half-life (human, intravenous, 475 mg/m2, RP2D 475 mg/m^2 d1,8,15, read-out: elimination half-life (t1/2), day 15 (converted)): 59 ± 11.2 h
concentration at 14 days (human, intravenous, 475 mg/m^2, 14 days after the prior dose, read-out: mean trough plasma level prior to cycle 2 day 1): 49.1 ± 34.5 ng/mL
concentration at 0 h [10]: 953 ng/mL
concentration at 0.5 h [10]: 1040 ng/mL
concentration at 2 h [10]: 712 ng/mL
concentration at 4 h [10]: 495 ng/mL
concentration at 48 h [10]: 222 ng/mL
AUC (human, intravenous, 650 mg/m2, Dose level 650 (mg/m2), one patient per datapoint, read-out: Day 1 AUC): 26800 ng·h/mL
elimination: eliminated slowly
